Results: patent US20170368119A1, “METHODS AND COMPOSITIONS FOR TREATING C-MET ASSOCIATED CANCERS” (YEASTERN BIOTECH CO., LTD, priority 2014, published 2017)

Experiments:
[1] = system: HCC329; assay: cell proliferation assay (doubling time), HCC329; type: cell-based, human; settings: 0.5, 1.0 and 2.0 μg/ml, dose dependent, 72 hours, untreated = 100%
Experimental: (§1) The most motile HCC cell lines identified in Example 2, namely HCC372 and HCC329, were employed for testing the molecular and cellular effects of FIP-gts on HCC, in comparison with those of JNJ-38877605 (abbreviated hereafter as JNJ), which is an ATP-competitive inhibitor for the catalytic activity of c-Met. In the cell proliferation assay, HCC329 and HCC372 cells were untreated or treated with FIP-gts (prepared in Example 4) at 0.5, 1.0 or 2.0 μg/ml for 72 hours. Cell numbers were counted, and the relative doubling times of the respective treated groups were determined by taking the data of the untreated group as 100%. The wound healing migration assay was repeated as described in Example 2, except that HCC329 and HCC372 were additionally treated with FIP-gts and JNJ (MedKoo Biosciences, Chapel Hill, N.C., USA), respectively, for 48 hours. Relative migration was analyzed quantitatively by taking the motility of untreated cells (Con) as 1.0. The results were shown in FIGS. 3A and 3B, in which the symbols (**), (*) and (#) represent statistical significance (p<0.005 and p<0.05, respectively, n=3) between the indicated inhibitor-treated samples and untreated HCC329 or HCC372 control group.

[2] = system: HCC372; assay: cell proliferation assay (doubling time), HCC372; type: cell-based, human; settings: 0.5, 1.0 and 2.0 μg/ml, dose dependent, 72 hours, untreated = 100%
Experimental: as §1

[3] = system: HCC372; assay: wound healing migration assay, HCC372; type: cell-based, human; settings: FIP-gts 2.0 μg/ml, 48 hours
Experimental: (§2) The HCC cells were cultivated on 24-well plates accompanied with a wound healing culture insert until confluence followed by serum starvation of the cells for 24 hours and the culture insert were then removed. After appropriate treatments, pictures were taken under a phase contrast microscope at indicated times. Quantitative analysis of motility of the HCC cell lines described in Example 1 was performed by directly counting the cells migrating into the blanking area at 48 hours using Image J. Software available from the NIH website. In general, motilities of the mesenchymal HCCs were higher than those of the epithelial ones.
The most motile HCC cell lines identified in Example 2, namely HCC372 and HCC329, were employed for testing the molecular and cellular effects of FIP-gts on HCC, in comparison with those of JNJ-38877605 (abbreviated hereafter as JNJ), which is an ATP-competitive inhibitor for the catalytic activity of c-Met. In the cell proliferation assay, HCC329 and HCC372 cells were untreated or treated with FIP-gts (prepared in Example 4) at 0.5, 1.0 or 2.0 μg/ml for 72 hours. Cell numbers were counted, and the relative doubling times of the respective treated groups were determined by taking the data of the untreated group as 100%. […] Relative migration was analyzed quantitatively by taking the motility of untreated cells (Con) as 1.0. […]

[4] = system: HCC329; assay: wound healing migration assay, HCC329; type: cell-based, human; settings: FIP-gts, 48 hours
Experimental: The HCC cells were cultivated on 24-well plates accompanied with a wound healing culture insert until confluence followed by serum starvation of the cells for 24 hours and the culture insert were then removed. After appropriate treatments, pictures were taken under a phase contrast microscope at indicated times.
Cell numbers were counted, and the relative doubling times of the respective treated groups were determined by taking the data of the untreated group as 100%. […] Relative migration was analyzed quantitatively by taking the motility of untreated cells (Con) as 1.0.

[5] = system: HepG2; assay: wound healing migration assay, HGF-induced HepG2; type: cell-based, human; settings: 25 nM HGF, FIP-gts 2.0 μg/ml versus JNJ 26.5 nM, 48 hours
Experimental: as §2
In a separate experiment, human hepatoma cell line HepG2, a non-motile HCC cell line conventionally used for observing HGF-inducible molecular and cellular effects, was employed. In this experiment, the wound healing migration assay described in Example 2 was again repeated, except that HepG2 (purchased from Bioresource Collection and Research Center (BCRC), Hsinchu, Taiwan) was treated with FIP-gts or JNJ-38877605 for 48 hours in the presence or absence of 25 nM HGF (PeproTech Inc., Rocky Hill, N.J., USA). Relative migration was quantitatively analyzed taking the motility of untreated cells (Con) as 1.0. […]

[6] = system: HCC329; assay: HCC329 tumor development and metastasis in SCID mice model; type: in vivo; settings: FIP-gts 4.0-20 μg/g mouse, intraperitoneal twice a week, 2 months
Experimental: HCC329 cells (approximately 2×10^7) suspended in 100 μl Dulbecco's Modified Eagle Medium (DMEM; Gibco, Grand Island, N.Y., USA) were directly injected into the subserosa of the middle liver lobe of the SCID mice, followed by intraperitoneal administration twice a week with DMEM as a vehicle, vehicle-containing FIP-gts (4.0-20 μg/g mouse) or JNJ (0.5-2.0 nmole/g mouse).
The mice were sacrificed 2 months after injection. Tumor mass was measured and the occurrence of intrahepatic metastasis and/or extrahepatic metastasis was recorded. Nodules with diameter of more than 0.1-0.2 cm observed on the left or right lobes were recognized as secondary tumor foci. […] Extra-hepatic metastasis was defined to be the case where the tumors appearing in organs other than liver such as in intestine. During the animal experiment, the regulations relevant to the care and use of laboratory animals were followed. This was approved by the Institutional Animal Care and Use Committee (IACUC) in Tzu Chi University (No. of consent form: 102080).

[7] = toxicity test on normal SCID mice; type: in vivo; settings: 20 μg/g mouse intraperitoneal, 2-3 month, data not shown
Experimental: In comparison, the effect of c-Met inhibitor JNJ on tumor progression of HCC329 was not prominent (FIG. 4). The toxicity test of FIP-gts on SCID mice was also performed by treating 4 normal SCID mice without inoculation of HCC329.

[8] = system: p-JNK, p-ERK, p-AKT, p-EGFR in HCC329; assay: immuno-blotting of signaling molecules, HCC329; type: cell-based, human
From the text: To investigate the molecular mechanism of FIP-gts in suppression of tumor progression of HCCs, the effects of FIP-gts on the activity and/or quantity of the critical members present in c-Met dependent signaling pathway, including c-Met, phosphorylated c-Met (p-c-Met) and downstream effectors p-JNK and p-ERK, were examined in HCCs. […] Total proteins were harvested from the cells and subjected to immuno-blotting analysis using GAPDH as a loading control. Antibodies for p-c-Met, p-JNK, p-ERK and p-paxillin (S178), GAPDH and ERK were purchased from Santa Cruz Biotechnology (California, USA). The band intensities on the blots were quantified with Image J. Software. Relative band intensity of each molecule was calculated, taking the data of untreated HCC372 or HCC329 as 1.0.

[9] = system: c-Met, p-c-Met, p-JNK, p-ERK, p-AKT in HCC372; assay: immuno-blotting of c-Met dependent signaling, HCC372; type: cell-based, human; settings: 2.0 μg/ml
Experimental: To investigate the molecular mechanism of FIP-gts in suppression of tumor progression of HCCs, the effects of FIP-gts on the activity and/or quantity of the critical members present in c-Met dependent signaling pathway, including c-Met, phosphorylated c-Met (p-c-Met) and downstream effectors p-JNK and p-ERK, were examined in HCCs. HCC329 and HCC372 cells were treated with FIP-gts (2 μg/ml) for 4 or 24 hours. Total proteins were harvested from the cells and subjected to immuno-blotting analysis using GAPDH as a loading control. Antibodies for p-c-Met, p-JNK, p-ERK and p-paxillin (S178), GAPDH and ERK were purchased from Santa Cruz Biotechnology (California, USA). The band intensities on the blots were quantified with Image J. Software. Relative band intensity of each molecule was calculated, taking the data of untreated HCC372 or HCC329 as 1.0. The results were shown in FIGS. 5A and 5B, in which (**) (##) and (*) (#) represent statistical significance (p<0.005 and p<0.05, respectively, n=3) between the indicated inhibitor-treated sample and untreated HCC329 or HCC372 control group.

[10] = system: HGF-induced c-Met signaling in HepG2; assay: immuno-blotting of HGF-induced c-Met signaling, HepG2; type: cell-based, human; settings: 2.0 μg/ml, 0.5 hour, HGF 25 nM
Experimental: HepG2 cells were treated with FIP-gts (2.0 μg/ml) for 0.5 hour in the presence or absence of HGF (25 nM). Total proteins were harvested from the cells and immuno-blotting analysis was performed as described in Example 6, except using ERK as the loading control. The results were shown in FIGS. 5C and 5D, in which (**) represent statistical significance (p<0.005, n=3) between the indicated HGF/FIP-gts co-treated sample and the HGF alone group.

FIP-gts: fungal immunomodulatory protein of SEQ ID NO: 1 (Ganoderma tsugae), recombinantly expressed in Saccharomyces cerevisiae
increase of doubling time [1]: 25-46%
increase of doubling time [2]: 14-47%
suppression of cell migration [3]: 95%
suppression of cell migration [4]: 80%
prevention of HGF-induced cell migration [5]: much more effectively than JNJ
secondary tumors on liver lobes (intra-hepatic metastasis) [6]: normal liver lobule structure
tumor progression (primary tumor growth and intra-metastasis) of HCC329 [6]: dramatically suppressed tumor progression
adverse effects (activity of animals, integrity of organs) [7]: no adverse effects was observed
decrease of phosphorylation of AKT ([8]; 2.0 μg/ml, 24 hours): 18%
decrease of phosphorylation of ERK ([8]; 2.0 μg/ml, 24 hours): 51%
decrease of phosphorylation of JNK ([8]; 2.0 μg/ml, 24 hours): 85%
phosphorylated EGFR (p-EGFR) level ([8]; 16 hours, versus untreated, data not shown): remarkably reduced
effect on p-JNK [9]: didn't decrease p-JNK at all
suppression of expression of Met protein ([9]; 4th hour): 90-95%
suppression of phosphorylation of AKT ([9]; 4th hour): 80-95%
suppression of phosphorylation of ERK ([9]; 4th hour): 80-95%
suppression of phosphorylation of Met (at Tyr1234) ([9]; 4th hour): 55%
suppression of HGF-induced p-ERK [10]: 85-90%
suppression of HGF-induced p-JNK [10]: 85-90%
suppression of HGF-induced p-c-Met [10]: 85-90%
suppression of HGF-induced phosphorylated paxillin (at Ser 178) [10]: 85-90%
